In patent US10947210B2 (priority 2015, dated 2021) one finds IC50 data, which are given here for 25 compounds.

Bounds are passed on as bounds.

In the experiment the target is HCV RNA-dependent RNA polymerase (NS5B) (Hepatitis C virus genotype 1b (isolate BK) (HCV), UniProt P26663). As to the kind of experiment: RNA-Dependent RNA HCV NS5B (polymerase) Assay and IC50 Determination. The experiment is classed as biochemical. Conditions: purified HCV NS5B polymerase, polyA:U16 substrate, 32P-UTP incorporation; read-out: IC50. Put shortly: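 Purified NS5B was incubated with 0.5 uM polyA:U16, 10 μM UTP plus ^32P-UTP in 50 mM Hepes-KOH pH 7.5, 5 mM MgCl2, 5 mM DTT, 2% glycerol and 0.01% Triton X-100. Inhibitor reactions ran 60 min at 37° C, and radiolabelled RNA product was quantified after filter capture. IC50 values were obtained from concentration series.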
HCV RNA-dependent RNA polymerase (NS5B), sequence (P26663 2420-3010): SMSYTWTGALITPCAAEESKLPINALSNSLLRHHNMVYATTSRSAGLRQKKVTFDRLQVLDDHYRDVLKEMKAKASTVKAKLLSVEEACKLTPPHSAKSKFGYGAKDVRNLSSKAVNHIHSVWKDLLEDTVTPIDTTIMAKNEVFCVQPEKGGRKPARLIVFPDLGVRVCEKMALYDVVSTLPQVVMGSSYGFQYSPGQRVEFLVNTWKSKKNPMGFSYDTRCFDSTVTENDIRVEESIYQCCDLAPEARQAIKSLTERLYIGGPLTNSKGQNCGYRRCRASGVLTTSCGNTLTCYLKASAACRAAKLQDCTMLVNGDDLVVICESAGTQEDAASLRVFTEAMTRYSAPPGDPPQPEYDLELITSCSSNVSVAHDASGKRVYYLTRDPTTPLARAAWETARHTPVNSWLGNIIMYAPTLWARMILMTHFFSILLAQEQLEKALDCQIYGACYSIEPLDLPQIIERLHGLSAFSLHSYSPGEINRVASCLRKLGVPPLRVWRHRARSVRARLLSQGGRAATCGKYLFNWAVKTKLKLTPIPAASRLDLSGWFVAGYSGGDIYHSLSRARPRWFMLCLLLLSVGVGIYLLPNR
On to `CCOC(=O)c1ccccc1OCCOCCOCCN(c1cc2oc(-c3ccc(F)cc3)c(C(=O)NC)c2cc1C1CC1)S(C)(=O)=O` [Compound 14-6A, 2-{2-[2-(2-{[5-Cyclopropyl-2-(4-fluoro-phenyl)-3-methylcarbamoyl-benzofuran-6-yl]-methanesulfonyl-amino}-ethoxy)-ethoxy]-ethoxy}-benzoic Acid Ethyl Ester], for which the IC50 is 100 to 1000 nM.
To `CCOC(=O)c1cccc(OCCOCCOCCN(c2cc3oc(-c4ccc(F)cc4)c(C(=O)NC)c3cc2C2CC2)S(C)(=O)=O)c1` [Compound 14-6B, 3-{2-[2-(2-{[5-Cyclopropyl-2-(4-fluoro-phenyl)-3-methylcarbamoyl-benzofuran-6-yl]-methanesulfonyl-amino}-ethoxy)-ethoxy]-ethoxy}-benzoic Acid Ethyl Ester] belongs over 1000 nM; to `CCOC(=O)c1ccc(OCCOCCOCCN(c2cc3oc(-c4ccc(F)cc4)c(C(=O)NC)c3cc2C2CC2)S(C)(=O)=O)cc1` [Compound 14-6C, 4-{2-[2-(2-{[5-Cyclopropyl-2-(4-fluoro-phenyl)-3-methylcarbamoyl-benzofuran-6-yl]-methanesulfonyl-amino}-ethoxy)-ethoxy]-ethoxy}-benzoic Acid Ethyl Ester], over 1000 nM.
To `CNC(=O)c1c(-c2ccc(F)cc2)oc2cc(N(CCOCCOCCOc3ccccc3C(=O)O)S(C)(=O)=O)c(C3CC3)cc12` [Compound 14-7A, 2-{2-[2-(2-{[5-Cyclopropyl-2-(4-fluoro-phenyl)-3-methylcarbamoyl-benzofuran-6-yl]-methanesulfonyl-amino}-ethoxy)-ethoxy]-ethoxy}-benzoic Acid] belongs under 100 nM; to `CNC(=O)c1c(-c2ccc(F)cc2)oc2cc(N(CCOCCOCCOc3cccc(C(=O)O)c3)S(C)(=O)=O)c(C3CC3)cc12` [Compound 14-7B, 3-{2-[2-(2-{[5-Cyclopropyl-2-(4-fluoro-phenyl)-3-methylcarbamoyl-benzofuran-6-yl]-methanesulfonyl-amino}-ethoxy)-ethoxy]-ethoxy}-benzoic Acid], 100 to 1000 nM; to `CNC(=O)c1c(-c2ccc(F)cc2)oc2cc(N(CCOCCOCCOc3ccc(C(=O)O)cc3)S(C)(=O)=O)c(C3CC3)cc12` [Compound 14-7C, 4-{2-[2-(2-{[5-Cyclopropyl-2-(4-fluoro-phenyl)-3-methylcarbamoyl-benzofuran-6-yl]-methanesulfonyl-amino}-ethoxy)-ethoxy]-ethoxy}-benzoic Acid], 100 to 1000 nM.
For `CCOC(=O)c1ccc(OCCCCCCN(c2cc3oc(-c4ccc(F)cc4)c(C(=O)NC)c3cc2C2CC2)S(C)(=O)=O)cc1` [Compound 15-7, 4-(6-{[5-Cyclopropyl-2-(4-fluoro-phenyl)-3-methylcarbamoyl-benzofuran-6-yl]-methanesulfonyl-amino}-hexyloxy)-benzoic Acid Ethyl Ester], the 50% inhibitory concentration (IC50) was 100 to 1000 nM.
As for `CNC(=O)c1c(-c2ccc(F)cc2)oc2cc(N(CCCCCCOc3ccc(C(=O)O)cc3)S(C)(=O)=O)c(C3CC3)cc12` [Compound 15-8, 4-(6-{[5-Cyclopropyl-2-(4-fluoro-phenyl)-3-methylcarbamoyl-benzofuran-6-yl]-methanesulfonyl-amino}-hexyloxy)-benzoic Acid], the IC50 was in the range of 100 to 1000 nM.
To `CNC(=O)c1c(-c2ccc(F)cc2)oc2cc(N(CCCCCOCc3ccc(C(=O)OC)cc3)S(C)(=O)=O)c(C3CC3)cc12` [Compound 16-6, 4-(5-{[5-Cyclopropyl-2-(4-fluoro-phenyl)-3-methylcarbamoyl-benzofuran-6-yl]-methanesulfonyl-amino}-pentyloxymethyl)-benzoic Acid Methyl Ester] belongs over 1000 nM; to `CNC(=O)c1c(-c2ccc(F)cc2)oc2cc(N(CCOCCOCc3ccc(F)c(C(=O)NO)c3)S(C)(=O)=O)c(C3CC3)cc12` [Compound 17A-8B, 5-Cyclopropyl-6-({2-[2-(4-fluoro-3-hydroxycarbamoyl-benzyloxy)-ethoxy]-ethyl}-methanesulfonyl-amino)-2-(4-fluoro-phenyl)-benzofuran-3-carboxylic Acid Methylamide], over 1000 nM; to `CNC(=O)c1c(-c2ccc(F)cc2)oc2cc(N(CCOCCOCc3ccc(C(=O)OC)c(C)c3)S(C)(=O)=O)c(C3CC3)cc12` [Compound 18-9A, 4-[2-(2-{[5-Cyclopropyl-2-(4-fluoro-phenyl)-3-methylcarbamoyl-benzofuran-6-yl]-methanesulfonyl-amino}-ethoxy)-ethoxymethyl]-2-methyl-benzoic Acid Methyl Ester], over 1000 nM.
Consider `CNC(=O)c1c(-c2ccc(F)cc2)oc2cc(N(CCOCCOCc3ccc(C(=O)OC)cc3C)S(C)(=O)=O)c(C3CC3)cc12` [Compound 18-9B, 4-[2-(2-{[5-Cyclopropyl-2-(4-fluoro-phenyl)-3-methylcarbamoyl-benzofuran-6-yl]-methanesulfonyl-amino}-ethoxy)-ethoxymethyl]-3-methyl-benzoic Acid Methyl Ester], for which the IC50 is over 1000 nM.
For `CNC(=O)c1c(-c2ccc(F)cc2)oc2cc(N(CCOCCOCc3ccc(C(=O)O)c(C)c3)S(C)(=O)=O)c(C3CC3)cc12` [Compound 18-10A, 4-[2-(2-{[5-Cyclopropyl-2-(4-fluoro-phenyl)-3-methylcarbamoyl-benzofuran-6-yl]-methanesulfonyl-amino}-ethoxy)-ethoxymethyl]-2-methyl-benzoic Acid], the IC50 lay in the range of 100 to 1000 nM.
Take `CNC(=O)c1c(-c2ccc(F)cc2)oc2cc(N(CCOCCOCc3ccc(C(=O)O)cc3C)S(C)(=O)=O)c(C3CC3)cc12` [Compound 18-10B, 4-[2-(2-{[5-Cyclopropyl-2-(4-fluoro-phenyl)-3-methylcarbamoyl-benzofuran-6-yl]-methanesulfonyl-amino}-ethoxy)-ethoxymethyl]-3-methyl-benzoic Acid]: the IC50 is under 100 nM.
As to `CNC(=O)c1c(-c2ccc(F)cc2)oc2cc(N(CCOCCOCc3ccnc(Cl)c3)S(C)(=O)=O)c(C3CC3)cc12` [Compound 19-8A, 6-({2-[2-(2-Chloro-pyridin-4-ylmethoxy)-ethoxy]-ethyl}-methanesulfonyl-amino)-5-cyclopropyl-2-(4-fluoro-phenyl)-benzofuran-3-carboxylic Acid Methylamide], the IC50 was under 100 nM.
Take `CNC(=O)c1c(-c2ccc(F)cc2)oc2cc(N(CCOCCOCc3ccc(Cl)nc3)S(C)(=O)=O)c(C3CC3)cc12` [Compound 19-8B]: the IC50 was under 100 nM.
To `CCOC(=O)c1ccc(COCCOCCN(c2cc3oc(-c4ccc(F)cc4)c(C(=O)NC)c3cc2C2CC2)S(C)(=O)=O)c2ccccc12` [Compound 20-7, 4-[2-(2-{[5-Cyclopropyl-2-(4-fluoro-phenyl)-3-methylcarbamoyl-benzofuran-6-yl]-methanesulfonyl-amino}-ethoxy)-ethoxymethyl]-naphthalene-1-carboxylic Acid Ethyl Ester] belongs 100 to 1000 nM.
The result for `CNC(=O)c1c(-c2ccc(F)cc2)oc2cc(N(CCOCCOCc3ccc(C(=O)O)c4ccccc34)S(C)(=O)=O)c(C3CC3)cc12` [Compound 20-8, 4-[2-(2-{[5-Cyclopropyl-2-(4-fluoro-phenyl)-3-methylcarbamoyl-benzofuran-6-yl]-methanesulfonyl-amino}-ethoxy)-ethoxymethyl]-naphthalene-1-carboxylic Acid] reads under 100 nM; that for `CNC(=O)c1c(-c2ccc(F)cc2)oc2cc(N(CCOCCSC(C)=O)S(C)(=O)=O)c(C3CC3)cc12` [Compound 21-5, Thioacetic Acid S-[2-(2-{[5-cyclopropyl-2-(4-fluoro-phenyl)-3-methylcarbamoyl-benzofuran-6-yl]-methanesulfonyl-amino}-ethoxy)-ethyl] Ester], under 100 nM; that for `CNC(=O)c1c(-c2ccc(F)cc2)oc2cc(N(CCOCCOCCOCC(=O)OC(C)(C)C)S(C)(=O)=O)c(C3CC3)cc12` [Compound 23-5A, {2-[2-(2-{[5-Cyclopropyl-2-(4-fluoro-phenyl)-3-methylcarbamoyl-benzofuran-6-yl]-methanesulfonyl-amino}-ethoxy)-ethoxy]-ethoxy}-acetic Acid Tert-butyl Ester], over 1000 nM.
To `CNC(=O)c1c(-c2ccc(F)cc2)oc2cc(N(CCOCCOCCOCC(N)=O)S(C)(=O)=O)c(C3CC3)cc12` [Compound 23-7A, 6-({2-[2-(2-Carbamoylmethoxy-ethoxy)-ethoxy]-ethyl}-methanesulfonyl-amino)-5-cyclopropyl-2-(4-fluoro-phenyl)-benzofuran-3-carboxylic Acid Methylamide] belongs 100 to 1000 nM.
As for `CNC(=O)c1c(-c2ccc(F)cc2)oc2cc(N(CCOCCOCCOCCC(=O)O)S(C)(=O)=O)c(C3CC3)cc12` [Compound 24-4, 3-{2-[2-(2-{[5-Cyclopropyl-2-(4-fluoro-phenyl)-3-methylcarbamoyl-benzofuran-6-yl]-methanesulfonyl-amino}-ethoxy)-ethoxy]-ethoxy}-propionic Acid], the IC50 fell in the range of 100 to 1000 nM.
To `CCOC(=O)C(OCCOCCOCCN(c1cc2oc(-c3ccc(F)cc3)c(C(=O)NC)c2cc1C1CC1)S(C)(=O)=O)c1ccccc1` (stereo not shown) [Compound 25-4, {2-[2-(2-{[5-Cyclopropyl-2-(4-fluoro-phenyl)-3-methylcarbamoyl-benzofuran-6-yl]-methanesulfonyl-amino}-ethoxy)-ethoxy]-ethoxy}-phenyl-acetic Acid Ethyl Ester] belongs over 1000 nM.
For the compound `CNC(=O)c1c(-c2ccc(F)cc2)oc2cc(N(CCOCCOCCOC(C(=O)NO)c3ccccc3)S(C)(=O)=O)c(C3CC3)cc12` (stereo not shown) [Compound 25-6, 5-Cyclopropyl-2-(4-fluoro-phenyl)-6-[(2-{2-[2-(hydroxycarbamoyl-phenyl-methoxy)-ethoxy]-ethoxy}-ethyl)-methanesulfonyl-amino]-benzofuran-3-carboxylic Acid Methylamide], the IC50 was over 1000 nM.
To `CNC(=O)c1c(-c2ccc(F)cc2)oc2cc(N(CCOCCOCCOC3(C(=O)OC(C)(C)C)CCCC3)S(C)(=O)=O)c(C3CC3)cc12` [Compound 26-6A] belongs over 1000 nM.

The IC50 is the concentration at which inhibition is half-maximal.
